Experimental findings from article PMC2900185 (Biochemistry, 2010) are described below.

Experiment [1] deals with Ste2p containing the substitution R58A. Nature of the experiment: Binding of α-factor to Ste2p with substitution R58A. Details: species or system Saccharomyces cerevisiae.
For experiment [2], the target named is Ste2p (R58A) (S. cerevisiae) (UniProt D6VTK4).
UniProt D6VTK4, sequence (D6VTK4 whole entry R58A): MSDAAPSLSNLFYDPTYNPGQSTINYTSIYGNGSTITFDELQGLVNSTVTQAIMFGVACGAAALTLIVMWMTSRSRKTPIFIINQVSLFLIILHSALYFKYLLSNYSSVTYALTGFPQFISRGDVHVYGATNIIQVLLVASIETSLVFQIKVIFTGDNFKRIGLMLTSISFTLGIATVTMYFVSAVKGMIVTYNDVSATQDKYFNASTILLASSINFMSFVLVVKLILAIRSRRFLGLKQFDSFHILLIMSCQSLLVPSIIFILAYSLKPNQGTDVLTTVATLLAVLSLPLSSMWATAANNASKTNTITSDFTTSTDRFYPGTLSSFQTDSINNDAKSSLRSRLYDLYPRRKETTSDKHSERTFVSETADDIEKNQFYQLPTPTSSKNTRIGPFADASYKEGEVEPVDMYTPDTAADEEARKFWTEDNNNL

Turning to WHWLQLKPGQPMY [α-factor], the “fold lower affinity for α-factor relative to wild-type Ste2p” value in experiment [1] is roughly 10 fold.

“α-factor (as used with the ste2 R58 mutants) (peptide)”: the fold higher Kd than wild-type Ste2p in experiment [2] came to 10 fold.
